Measurements reported in patent US6972296B2, “Carboxylic acid derivatives that inhibit the binding of integrins to their receptors” (Encysive Pharmaceuticals Inc., priority 1999, dated 2005).

Biological target: T1, α4β1 integrin (Homo sapiens, UniProt P05556+P13612)
T1 construct: endogenous in cells; host or cells: Ramos cells
Experiment: Adhesion of calcein-labeled Ramos cells to CS1 (fibronectin) peptide conjugated ovalbumin
Assay type: cell-based
Conditions: Ramos cell adhesion to CS1 conjugated ovalbumin
Method in brief: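 Calcein AM-labelled Ramos cells (2.5×10^5/well) with compound, up to 100 μM, added to plates coated with CS1 peptide–ovalbumin (0.5 μg/ml) and blocked with 3% BSA. Binding buffer TBS pH 7.5 with 1 mM each MgCl2, CaCl2, MnCl2; 30 min, 37 °C. After washes, adherent cells lysed and read fluorometrically; […].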

[1] = Table 5, dose required to give 50% inhibition
[2] = Table 7, dose required to give 50% inhibition

T1 sequence (P13612 34-1032): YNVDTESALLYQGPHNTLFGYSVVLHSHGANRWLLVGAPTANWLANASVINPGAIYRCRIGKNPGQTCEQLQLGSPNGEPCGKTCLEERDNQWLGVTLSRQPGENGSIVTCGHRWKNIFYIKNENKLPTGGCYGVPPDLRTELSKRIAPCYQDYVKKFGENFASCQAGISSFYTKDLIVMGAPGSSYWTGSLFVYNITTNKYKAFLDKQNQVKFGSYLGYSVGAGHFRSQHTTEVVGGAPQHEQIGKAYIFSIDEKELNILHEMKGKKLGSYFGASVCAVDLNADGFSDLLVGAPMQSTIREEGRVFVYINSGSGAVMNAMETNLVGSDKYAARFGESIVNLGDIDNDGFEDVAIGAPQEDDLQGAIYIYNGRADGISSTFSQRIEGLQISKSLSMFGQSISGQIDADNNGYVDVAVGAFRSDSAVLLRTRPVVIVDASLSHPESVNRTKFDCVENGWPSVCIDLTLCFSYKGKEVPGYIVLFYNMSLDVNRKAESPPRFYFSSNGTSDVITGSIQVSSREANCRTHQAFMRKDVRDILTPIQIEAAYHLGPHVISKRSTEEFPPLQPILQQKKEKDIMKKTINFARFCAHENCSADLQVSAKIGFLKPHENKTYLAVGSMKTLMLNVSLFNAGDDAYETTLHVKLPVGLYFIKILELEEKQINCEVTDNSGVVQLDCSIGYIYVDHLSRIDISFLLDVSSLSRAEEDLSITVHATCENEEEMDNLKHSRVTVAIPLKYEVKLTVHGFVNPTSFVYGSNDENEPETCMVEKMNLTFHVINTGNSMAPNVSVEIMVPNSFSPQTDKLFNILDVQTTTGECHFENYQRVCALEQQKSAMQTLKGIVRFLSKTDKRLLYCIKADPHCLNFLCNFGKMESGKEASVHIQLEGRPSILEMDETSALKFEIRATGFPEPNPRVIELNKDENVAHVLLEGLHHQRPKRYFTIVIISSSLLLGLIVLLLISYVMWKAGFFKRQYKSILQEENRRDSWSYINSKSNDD
T1 sequence (P05556 21-798): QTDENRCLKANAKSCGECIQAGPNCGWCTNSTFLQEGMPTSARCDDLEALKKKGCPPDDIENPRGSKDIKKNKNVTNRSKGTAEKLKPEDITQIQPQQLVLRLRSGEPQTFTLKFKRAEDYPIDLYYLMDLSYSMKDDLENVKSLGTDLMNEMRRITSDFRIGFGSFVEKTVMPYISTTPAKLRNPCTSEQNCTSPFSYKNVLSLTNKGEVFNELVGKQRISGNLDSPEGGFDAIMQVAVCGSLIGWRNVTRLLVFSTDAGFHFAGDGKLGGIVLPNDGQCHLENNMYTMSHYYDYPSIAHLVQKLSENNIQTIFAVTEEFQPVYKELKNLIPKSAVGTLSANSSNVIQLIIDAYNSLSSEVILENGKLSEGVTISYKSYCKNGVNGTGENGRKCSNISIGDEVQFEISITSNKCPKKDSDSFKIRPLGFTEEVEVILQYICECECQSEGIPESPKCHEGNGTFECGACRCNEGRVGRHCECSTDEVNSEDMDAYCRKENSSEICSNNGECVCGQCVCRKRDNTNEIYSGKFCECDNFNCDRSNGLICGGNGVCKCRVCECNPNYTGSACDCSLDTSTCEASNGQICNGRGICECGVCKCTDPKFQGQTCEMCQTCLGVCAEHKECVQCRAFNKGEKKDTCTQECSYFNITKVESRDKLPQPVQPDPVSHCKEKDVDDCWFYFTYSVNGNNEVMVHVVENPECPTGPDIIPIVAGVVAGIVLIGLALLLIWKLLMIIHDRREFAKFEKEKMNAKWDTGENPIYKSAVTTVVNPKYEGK

O=C(O)C[C@H](NC(=O)Nc1cccn(CCCOc2ccccc2)c1=O)c1ccc2c(c1)OCO2
IC50 (Table 4, 30 minutes at 37° C.): 14 µM

CCOc1ccc([C@H](CC(=O)O)NC(=O)Nc2c(O)c(C)c(C)n(Cc3ccccc3Cl)c2=O)cc1OCC [(3S)-3-[({[1-(2-chlorobenzyl)-4-hydroxy-5,6-dimethyl-2-oxo-1,2-dihydropyridin-3-yl]amino}carbonyl)amino]-3-(3,4-diethoxyphenyl)propanoic acid]
IC50 [1]: 0.003 µM

Cc1ccc([C@H](CC(=O)O)N(C)C(=O)Nc2c(O)ccn(Cc3ccccc3Cl)c2=O)cc1
IC50 [1]: 0.4 µM

CCOc1cccc(Cl)c1Cn1c(C)c(CC)c(O)c(NC(=O)N[C@@H](CC(=O)O)c2ccc(C)cc2)c1=O
IC50 [2]: 0.004 µM

COc1ccc([C@H](CC(=O)O)NC(=O)Nc2cccn(Cc3ccccc3Cl)c2=O)cc1C
IC50 (Table 4, 30 minutes at 37° C.): 0.04 µM

Cc1ccc([C@H](CC(=O)O)NC(=O)Nc2cc(C(F)(F)F)cn(Cc3ccccc3)c2=O)cc1
IC50 [1]: 1.5 µM

CCOc1cccc([C@H](CC(=O)O)NC(=O)Nc2c(O)c(C)c(C)n(Cc3c(C)cccc3Cl)c2=O)c1
IC50 [1]: 0.015 µM

Cc1ccc([C@H](CC(=O)O)NC(=O)Nc2cccn(Cc3cccc(O)c3)c2=O)cc1
IC50 (Table 4, 30 minutes at 37° C.): 0.2 µM

COc1cccc(Cn2ccc(O)c(NC(=O)N[C@@H](CC(=O)O)c3ccc(C)cc3)c2=O)c1
IC50 [1]: 0.04 µM

Cc1ccc([C@H](CC(=O)O)NC(=O)Nc2c(O)ccn(Cc3ccccc3S(=O)(=O)N(C)C)c2=O)cc1
IC50 [1]: 0.03 µM

CCOc1cccc(Cl)c1Cn1c2c(c(O)c(NC(=O)N[C@@H](CC(=O)O)c3ccccc3)c1=O)CCC2 [(3S)-3-[({[1-(2-chloro-6-ethoxybenzyl)-4-hydroxy-2-oxo-2,5,6,7-tetrahydro-1H-cyclopenta[b]pyridin-3-yl]amino}carbonyl)amino]-3-phenylpropanoic acid]
IC50 [2]: 0.002 µM

Cc1cn(Cc2ccccc2Cl)c(=O)c(NC(=O)NC(CC(=O)O)c2cccc(N3CCCCC3)c2)c1O (centres unmarked)
IC50 [2]: 0.022 µM

CCOc1ccc([C@H](CC(=O)O)NC(=O)Nc2c(O)ccn(Cc3ccccc3Cl)c2=O)cc1
IC50 (Table 4, 30 minutes at 37° C.): 0.02 µM

CCOc1cccc(Cl)c1Cn1c2c(c(O)c(NC(=O)N[C@@H](CC(=O)O)c3cccc(CC(C)C)c3)c1=O)CCC2
IC50 [2]: 0.004 µM

O=C(O)C[C@H](NC(=O)Nc1c(O)ccn(Cc2ccccc2Cl)c1=O)c1ccccn1
IC50 (Table 6, 30 minutes at 37° C.): 0.15 µM

COc1c(C)cc([C@H](CC(=O)O)NC(=O)Nc2c(O)ccn(Cc3ccccc3Cl)c2=O)cc1C
IC50 [1]: 0.035 µM

Cc1ccc([C@H](CC(=O)O)NC(=O)Nc2cn(Cc3ccccc3Cl)ccc2=O)cc1
IC50 (Table 4, 30 minutes at 37° C.): 0.1 µM

Cc1ccc([C@H](CC(=O)O)NC(=O)Nc2c(O)c(C)cn(Cc3cc(F)ccc3Cl)c2=O)cc1
IC50 [2]: 0.005 µM

Cc1cn(Cc2ccccc2Cl)c(=O)c(NC(=O)NC(CC(=O)O)c2ccco2)c1O (centres unmarked)
IC50 [2]: 0.004 µM

CCOc1cccc([C@H](CC(=O)O)NC(=O)Nc2c(O)c3c(n(Cc4c(C)cccc4Cl)c2=O)CCC3)c1 [(3S)-3-[({[1-(2-chloro-6-methylbenzyl)-4-hydroxy-2-oxo-2,5,6,7-tetrahydro-1H-cyclopenta[b]pyridin-3-yl]amino}carbonyl)amino]-3-(3-ethoxyphenyl)propanoic acid]
IC50 (Table 6, 30 minutes at 37° C.): 0.004 µM

CCCCOc1cccc([C@H](CC(=O)O)NC(=O)Nc2c(O)c3c(n(Cc4ccccc4Cl)c2=O)CCC3)c1
IC50 (Table 6, 30 minutes at 37° C.): 0.02 µM

CCCc1ccc([C@H](CC(=O)O)NC(=O)Nc2c(O)c3c(n(Cc4ccccc4Cl)c2=O)CCC3)cc1
IC50 [2]: 0.017 µM

CCOc1ccc([C@H](CC(=O)O)NC(=O)Nc2c(O)c3ccccc3n(Cc3ccccc3Cl)c2=O)cc1OCC
IC50 (Table 6, 30 minutes at 37° C.): 0.004 µM

COc1ccc([C@H](CC(=O)O)NC(=O)Nc2c(O)ccn(Cc3ccccc3Cl)c2=O)cc1OC [(3S)-3-[({[1-(2-chlorobenzyl)-4-hydroxy-2-oxo-1,2-dihydropyridin-3-yl]amino}carbonyl)amino]-3-(3,4-dimethoxyphenyl)propanoic acid]
IC50 [1]: 0.002 µM

Cc1cc(C)cc([C@H](CC(=O)O)NC(=O)Nc2c(O)c3c(n(Cc4ccccc4Cl)c2=O)CCC3)c1 [(3S)-3-[({[1-(2-chlorobenzyl)-4-hydroxy-2-oxo-2,5,6,7-tetrahydro-1H-cyclopenta[b]pyridin-3-yl]amino}carbonyl)amino]-3-(3,5-dimethylphenyl)propanoic acid]
IC50 [2]: 0.009 µM

O=C(O)CC(NC(=O)Nc1cccn(Cc2ccccc2Cl)c1=O)c1cccc(Cl)c1 (centres unmarked)
IC50 (Table 4, 30 minutes at 37° C.): 1 µM

Cc1ccc([C@H](CC(=O)O)NC(=O)Nc2cccn(Cc3ccccc3Cl)c2=O)cc1C
IC50 (Table 4, 30 minutes at 37° C.): 0.09 µM

Cc1ccc([C@H](CC(=O)O)NC(=O)Nc2c(O)ccn(Cc3ccccc3C)c2=O)cc1
IC50 [1]: 0.02 µM

CCOc1ccc([C@H](CC(=O)O)NC(=O)Nc2c(O)c(C)cn(Cc3c(C)cccc3Cl)c2=O)cc1OCC
IC50 (Table 6, 30 minutes at 37° C.): 0.003 µM

O=C(O)CC(NC(=O)Nc1cccn(Cc2ccccc2Cl)c1=O)c1ccc(Cl)cc1 (centres unmarked)
IC50 (Table 4, 30 minutes at 37° C.): 0.4 µM

COc1cccc(OC)c1[C@H](CC(=O)O)NC(=O)Nc1cccn(Cc2ccccc2Cl)c1=O
IC50 (Table 4, 30 minutes at 37° C.): 6 µM

CCCOc1cccc([C@H](CC(=O)O)NC(=O)Nc2c(O)c3c(n(Cc4c(C)cccc4Cl)c2=O)CCC3)c1
IC50 [2]: 0.012 µM

CCOc1cccc(Cl)c1Cn1cc(C2CC2)c(O)c(NC(=O)N[C@@H](CC(=O)O)c2ccc(C)cc2)c1=O [(3S)-3-[({[1-(2-chloro-6-ethoxybenzyl)-5-cyclopropyl-4-hydroxy-2-oxo-1,2-dihydropyridin-3-yl]amino}carbonyl)amino]-3-(4-methylphenyl)propanoic acid]
IC50 [2]: 0.003 µM

Cc1ccc([C@H](CC(=O)O)NC(=O)Nc2cccn(Cc3ccc([N+](=O)[O-])cc3)c2=O)cc1
IC50 (Table 4, 30 minutes at 37° C.): 1 µM

COc1ccc([C@H](CC(=O)O)NC(=O)Nc2c(O)ccn(Cc3ccccc3Cl)c2=O)cc1C [(3S)-3-{[({1-[(2-chlorophenyl)methyl]-4-hydroxy-2-oxo-1,2-dihydro-3-pyridinyl}amino)carbonyl]amino}-3-[3-methyl-4-(methyloxy)phenyl]propanoic acid]
IC50 (Table 3, 30 minutes at 37° C.): 0.008 µM

O=C(O)C[C@H](NC(=O)Nc1c(O)ccn(Cc2ccccc2Cl)c1=O)c1ccc(OC(F)F)cc1
IC50 (Table 6, 30 minutes at 37° C.): 0.03 µM

O=C(O)C[C@H](NC(=O)N[C@H]1CCN(Cc2cccs2)C1=O)c1ccc2c(c1)OCO2 [(3S)-3-(1,3-benzodioxol-5-yl)-3-[({[(3S)-2-oxo-1-(2-thienylmethyl)tetrahydro-1H-pyrrol-3-yl]amino}carbonyl)amino]propanoic acid]
IC50 (Table 2, 30 minutes at 37° C.): 15 µM

O=C(O)C[C@H](NC(=O)Nc1c(O)c2c(n(Cc3ccccc3Cl)c1=O)CCC2)c1cccc(OC2CC2)c1
IC50 [2]: 0.004 µM

CCN(c1cccc([C@H](CC(=O)O)NC(=O)Nc2c(O)c3c(n(Cc4c(C)cccc4Cl)c2=O)CCC3)c1)S(C)(=O)=O [(3S)-3-{[({1-[(2-chloro-6-methylphenyl)methyl]-4-hydroxy-2-oxo-2,5,6,7-tetrahydro-1H-cyclopenta[b]pyridin-3-yl}amino)carbonyl]amino}-3-{3-[ethyl(methylsulfonyl)amino]phenyl}propanoic acid]
IC50 [2]: 0.001 µM

Cc1ccc([C@H](CC(=O)O)NC(=O)Nc2c(C)ccn(Cc3ccc(Cl)cc3Cl)c2=O)cc1
IC50 (Table 3, 30 minutes at 37° C.): 0.03 µM

Cc1ccc([C@H](CC(=O)O)NC(=O)Nc2c(O)c(C)cn(Cc3cc(S(=O)(=O)N4CCCCC4)ccc3Cl)c2=O)cc1
IC50 [2]: 0.027 µM

Cc1cccc(Cl)c1Cn1c2c(c(O)c(NC(=O)N[C@@H](CC(=O)O)c3cccc(OC(F)(F)F)c3)c1=O)CCC2
IC50 [2]: 0.011 µM

O=C(O)C[C@H](NC(=O)Nc1cccn(Cc2cccs2)c1=O)c1ccc2c(c1)CCO2
IC50 (Table 4, 30 minutes at 37° C.): 0.14 µM

COc1ccc([C@H](CC(=O)O)NC(=O)Nc2c(O)c(C)cn(Cc3ccccc3Cl)c2=O)cc1C
IC50 [2]: 0.009 µM

CSc1cccc(Cn2ccc(O)c(NC(=O)N[C@@H](CC(=O)O)c3ccc(C)cc3)c2=O)c1
IC50 (Table 6, 30 minutes at 37° C.): 0.02 µM

Cc1cc([C@H](CC(=O)O)NC(=O)Nc2cccn(Cc3ccccc3Cl)c2=O)ccc1O
IC50 (Table 4, 30 minutes at 37° C.): 0.07 µM

COc1ccccc1Cn1cccc(NC(=O)N[C@@H](CC(=O)O)c2ccc(C)cc2)c1=O
IC50 [1]: 0.25 µM

Cc1ccc(C[C@H](CC(=O)O)NC(=O)Nc2c(O)ccn(Cc3ccccc3Cl)c2=O)cc1
IC50 [1]: 0.15 µM

O=C(O)C[C@H](NC(=O)Nc1c(O)ccn(Cc2ccccc2Cl)c1=O)c1cc(F)cc(F)c1
IC50 [1]: 0.05 µM

O=C(O)CC(NC(=O)Nc1c(O)ccn(Cc2ccccc2Cl)c1=O)c1ccc(Cl)c(Cl)c1 (centres unmarked)
IC50 (Table 3, 30 minutes at 37° C.): 0.04 µM
IC50 (Table 4, 30 minutes at 37° C.): 0.04 µM

COc1cc([C@H](CC(=O)O)NC(=O)Nc2c(O)ccn(Cc3ccccc3Cl)c2=O)cc2c1OCO2 [(3S)-3-[({[1-(2-chlorobenzyl)-4-hydroxy-2-oxo-1,2-dihydropyridin-3-yl]amino}carbonyl)amino]-3-(7-methoxy-1,3-benzodioxol-5-yl)propanoic acid]
IC50 [1]: 0.005 µM

COc1cccc(OC)c1Cn1ccc(O)c(NC(=O)N[C@@H](CC(=O)O)c2ccc(C)cc2)c1=O [(3S)-3-[({[1-(2,6-dimethoxybenzyl)-4-hydroxy-2-oxo-1,2-dihydropyridin-3-yl]amino}carbonyl)amino]-3-(4-methylphenyl)propanoic acid]
IC50 [1]: 0.01 µM

CCCc1cn(Cc2c(Cl)cccc2OCC)c(=O)c(NC(=O)N[C@@H](CC(=O)O)c2ccccc2)c1O
IC50 [2]: 0.023 µM

O=C(O)C[C@H](NC(=O)Nc1cccn(Cc2cccs2)c1=O)c1ccc(C(F)(F)F)cc1
IC50 (Table 4, 30 minutes at 37° C.): 1.5 µM

Cc1ccc([C@H](CC(=O)O)NC(=O)Nc2c(O)ccn(Cc3ccc(F)cc3F)c2=O)cc1
IC50 [1]: 0.03 µM

Cc1ccc([C@H](CC(=O)O)NC(=O)Nc2c(C)ccn(Cc3ccccc3Br)c2=O)cc1 [(3S)-3-{[({1-[(2-bromophenyl)methyl]-4-methyl-2-oxo-1,2-dihydro-3-pyridinyl}amino)carbonyl]amino}-3-(4-methylphenyl)propanoic acid]
IC50 (Table 3, 30 minutes at 37° C.): 0.01 µM

Cc1cn(Cc2ccccc2Cl)c(=O)c(NC(=O)N[C@@H](CC(=O)O)c2cccc(O)c2)c1O
IC50 [2]: 0.009 µM

O=C(O)C[C@H](NC(=O)Nc1c(O)c2c(n(Cc3ccccc3Cl)c1=O)CCC2)c1cccc(F)c1
IC50 [2]: 0.016 µM
